Consider 1 compound from PMC7714403 (JCI Insight, 2020).

Where two headings read alike, the source gives them in different places.

In one assay the target is T1, GCK (Homo sapiens, UniProt Q12851).
T1 sequence (Q12851 1-820): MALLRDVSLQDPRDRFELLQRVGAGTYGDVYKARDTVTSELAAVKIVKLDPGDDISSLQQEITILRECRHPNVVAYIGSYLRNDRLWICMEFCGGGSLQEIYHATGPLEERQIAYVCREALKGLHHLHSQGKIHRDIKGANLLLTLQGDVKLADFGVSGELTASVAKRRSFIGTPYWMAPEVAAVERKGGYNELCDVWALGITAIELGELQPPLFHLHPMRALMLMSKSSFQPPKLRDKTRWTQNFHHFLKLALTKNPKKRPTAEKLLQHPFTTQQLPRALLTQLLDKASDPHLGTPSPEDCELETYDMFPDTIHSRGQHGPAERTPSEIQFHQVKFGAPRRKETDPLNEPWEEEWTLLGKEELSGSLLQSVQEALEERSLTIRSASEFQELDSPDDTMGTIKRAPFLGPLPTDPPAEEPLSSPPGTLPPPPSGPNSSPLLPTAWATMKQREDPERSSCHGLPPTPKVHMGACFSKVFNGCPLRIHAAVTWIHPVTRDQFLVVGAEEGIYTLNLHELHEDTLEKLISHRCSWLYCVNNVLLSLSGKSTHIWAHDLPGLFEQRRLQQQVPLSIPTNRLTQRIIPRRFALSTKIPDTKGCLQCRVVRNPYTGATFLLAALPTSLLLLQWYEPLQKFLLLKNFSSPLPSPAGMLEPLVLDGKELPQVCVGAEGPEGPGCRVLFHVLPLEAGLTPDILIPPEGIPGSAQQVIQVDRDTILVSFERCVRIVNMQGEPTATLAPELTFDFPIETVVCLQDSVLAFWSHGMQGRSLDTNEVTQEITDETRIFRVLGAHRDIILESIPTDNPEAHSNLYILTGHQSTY
Kind of assay: KiNativ in situ kinase profiling, OCI-AML3 cells. It counts as cell-based. How it is done:
(§1) Samples were analyzed by KiNativ in situ kinase profiling by ActivX Biosciences.

A further assay concerns the target ACK1 (Homo sapiens, UniProt Q07912). Kind of assay: KiNativ in situ kinase profiling, OCI-AML3 cells. It counts as cell-based. How it is done:
as §1

For the next assay, the system named is MST4, YSK1. The experiment in a line: KiNativ, OCI cells live cell. It counts as cell-based, human. Conditions: labeling site Lys2, peptide DIKAANVLLSEQGDVK
The next assay concerns the target T2, ZAP70 (Homo sapiens, UniProt P43403).
T2 sequence (P43403 1-619): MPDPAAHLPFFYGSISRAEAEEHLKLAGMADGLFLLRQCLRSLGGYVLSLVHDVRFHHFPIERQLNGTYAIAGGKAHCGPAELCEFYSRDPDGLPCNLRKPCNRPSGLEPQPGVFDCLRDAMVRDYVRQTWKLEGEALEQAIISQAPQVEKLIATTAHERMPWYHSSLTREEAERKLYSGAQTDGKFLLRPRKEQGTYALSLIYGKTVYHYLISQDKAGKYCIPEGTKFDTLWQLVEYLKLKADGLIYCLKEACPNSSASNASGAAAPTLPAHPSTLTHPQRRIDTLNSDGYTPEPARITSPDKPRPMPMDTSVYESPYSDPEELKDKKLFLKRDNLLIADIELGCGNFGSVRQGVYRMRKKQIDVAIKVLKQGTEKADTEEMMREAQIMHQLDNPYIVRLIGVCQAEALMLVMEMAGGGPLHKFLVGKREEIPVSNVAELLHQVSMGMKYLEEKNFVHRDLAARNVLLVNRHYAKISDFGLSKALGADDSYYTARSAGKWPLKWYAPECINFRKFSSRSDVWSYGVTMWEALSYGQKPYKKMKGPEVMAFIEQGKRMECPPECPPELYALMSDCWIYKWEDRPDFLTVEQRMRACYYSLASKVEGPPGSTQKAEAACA
Kind of assay: KiNativ, OCI cells live cell. Conditions: 2 h, labeling site Activation Loop. It counts as cell-based.

Another assay concerns OCI-AML3 cells. The experiment in a line: Viability assay. It counts as cell-based. As to conditions: Homo sapiens, OCI-AML-3, read-out: IC50 viability. How it is done: Drug treatments were carried out for 72 hours. Details are provided in the Supplemental Methods.
A further assay addresses CaMK1d (Homo sapiens, UniProt Q8IU85). The experiment in a line: KiNativ, OCI cells live cell. It counts as cell-based. Conditions: 2 h.
A further assay deals with T3, MSK2 domain1 (Homo sapiens, UniProt O75676).
T3 construct: MSK2 domain1
T3 sequence (O75676 whole entry, the tested form may be a part): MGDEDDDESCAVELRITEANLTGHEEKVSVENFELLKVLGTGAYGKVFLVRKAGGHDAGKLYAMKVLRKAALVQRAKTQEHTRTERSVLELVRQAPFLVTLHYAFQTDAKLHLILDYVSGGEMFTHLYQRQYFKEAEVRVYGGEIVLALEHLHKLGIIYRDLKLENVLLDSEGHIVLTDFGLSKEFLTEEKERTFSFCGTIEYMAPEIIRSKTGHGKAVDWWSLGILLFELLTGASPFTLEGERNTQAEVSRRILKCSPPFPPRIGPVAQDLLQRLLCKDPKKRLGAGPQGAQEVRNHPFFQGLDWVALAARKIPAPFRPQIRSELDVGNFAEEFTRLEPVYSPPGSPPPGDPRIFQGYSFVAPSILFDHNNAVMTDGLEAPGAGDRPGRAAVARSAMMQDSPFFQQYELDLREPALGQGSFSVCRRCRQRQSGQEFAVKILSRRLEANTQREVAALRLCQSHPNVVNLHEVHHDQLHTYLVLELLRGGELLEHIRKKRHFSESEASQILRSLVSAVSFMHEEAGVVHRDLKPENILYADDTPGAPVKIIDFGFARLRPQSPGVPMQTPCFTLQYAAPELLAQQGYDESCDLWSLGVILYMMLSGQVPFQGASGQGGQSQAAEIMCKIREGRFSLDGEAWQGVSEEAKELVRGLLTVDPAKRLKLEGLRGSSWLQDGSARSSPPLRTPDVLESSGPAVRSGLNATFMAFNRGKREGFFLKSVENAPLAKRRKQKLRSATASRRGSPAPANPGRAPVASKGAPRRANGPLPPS
The experiment in a line: KiNativ, OCI cells live cell. It counts as cell-based. Conditions: 2 h.

For the next assay, the target named is FLT3-ITD and TKD mutants. Kind of assay: KdELECT binding assay. Conditions: range over FLT3-ITD and TKD mutants.
The target in the next assay is IKKa (Homo sapiens, UniProt O15111). The experiment in a line: KiNativ, OCI cells live cell. It counts as cell-based. As to conditions: 2 h, labeling site Lys2, peptide […].
In another assay the target is PYK2 (Homo sapiens, UniProt Q14289). Kind of assay: KiNativ, OCI cells live cell. It counts as cell-based. Conditions: 2 h.
Chain of PYK2 (Q14289 whole entry): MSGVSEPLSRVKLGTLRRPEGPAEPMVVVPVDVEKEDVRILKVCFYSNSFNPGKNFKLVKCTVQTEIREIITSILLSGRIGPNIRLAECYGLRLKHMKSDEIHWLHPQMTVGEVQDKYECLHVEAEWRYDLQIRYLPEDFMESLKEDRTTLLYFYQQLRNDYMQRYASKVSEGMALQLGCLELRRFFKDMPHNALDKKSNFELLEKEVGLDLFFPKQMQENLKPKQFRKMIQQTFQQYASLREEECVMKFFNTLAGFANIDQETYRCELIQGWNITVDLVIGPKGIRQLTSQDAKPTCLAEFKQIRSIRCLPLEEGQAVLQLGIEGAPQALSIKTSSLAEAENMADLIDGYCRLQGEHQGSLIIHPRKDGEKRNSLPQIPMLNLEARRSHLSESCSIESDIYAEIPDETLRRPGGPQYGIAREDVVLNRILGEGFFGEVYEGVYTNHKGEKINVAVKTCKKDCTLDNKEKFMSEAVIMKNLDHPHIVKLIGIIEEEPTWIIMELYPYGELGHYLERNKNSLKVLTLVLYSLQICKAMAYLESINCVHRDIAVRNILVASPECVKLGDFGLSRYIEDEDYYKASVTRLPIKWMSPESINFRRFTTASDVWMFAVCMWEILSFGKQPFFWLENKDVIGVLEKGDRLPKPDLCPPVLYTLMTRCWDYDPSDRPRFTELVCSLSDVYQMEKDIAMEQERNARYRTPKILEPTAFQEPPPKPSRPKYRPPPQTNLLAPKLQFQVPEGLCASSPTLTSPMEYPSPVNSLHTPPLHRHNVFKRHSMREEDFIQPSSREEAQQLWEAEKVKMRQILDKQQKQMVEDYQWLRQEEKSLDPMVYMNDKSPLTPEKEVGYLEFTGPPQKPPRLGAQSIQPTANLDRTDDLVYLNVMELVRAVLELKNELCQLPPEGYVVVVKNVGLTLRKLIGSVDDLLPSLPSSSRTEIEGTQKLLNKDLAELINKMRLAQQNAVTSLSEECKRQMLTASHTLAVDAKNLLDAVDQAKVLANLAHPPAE
The next assay concerns the target PAK2 (Homo sapiens, UniProt Q13177). The experiment in a line: KiNativ, OCI cells live cell. It counts as cell-based. Conditions: 2 h.
In another assay the target is PKN1 (Homo sapiens, UniProt Q16512). The experiment in a line: KiNativ, OCI cells live cell. Conditions: 2 h. It counts as cell-based.
Chain of PKN1 (Q16512 whole entry): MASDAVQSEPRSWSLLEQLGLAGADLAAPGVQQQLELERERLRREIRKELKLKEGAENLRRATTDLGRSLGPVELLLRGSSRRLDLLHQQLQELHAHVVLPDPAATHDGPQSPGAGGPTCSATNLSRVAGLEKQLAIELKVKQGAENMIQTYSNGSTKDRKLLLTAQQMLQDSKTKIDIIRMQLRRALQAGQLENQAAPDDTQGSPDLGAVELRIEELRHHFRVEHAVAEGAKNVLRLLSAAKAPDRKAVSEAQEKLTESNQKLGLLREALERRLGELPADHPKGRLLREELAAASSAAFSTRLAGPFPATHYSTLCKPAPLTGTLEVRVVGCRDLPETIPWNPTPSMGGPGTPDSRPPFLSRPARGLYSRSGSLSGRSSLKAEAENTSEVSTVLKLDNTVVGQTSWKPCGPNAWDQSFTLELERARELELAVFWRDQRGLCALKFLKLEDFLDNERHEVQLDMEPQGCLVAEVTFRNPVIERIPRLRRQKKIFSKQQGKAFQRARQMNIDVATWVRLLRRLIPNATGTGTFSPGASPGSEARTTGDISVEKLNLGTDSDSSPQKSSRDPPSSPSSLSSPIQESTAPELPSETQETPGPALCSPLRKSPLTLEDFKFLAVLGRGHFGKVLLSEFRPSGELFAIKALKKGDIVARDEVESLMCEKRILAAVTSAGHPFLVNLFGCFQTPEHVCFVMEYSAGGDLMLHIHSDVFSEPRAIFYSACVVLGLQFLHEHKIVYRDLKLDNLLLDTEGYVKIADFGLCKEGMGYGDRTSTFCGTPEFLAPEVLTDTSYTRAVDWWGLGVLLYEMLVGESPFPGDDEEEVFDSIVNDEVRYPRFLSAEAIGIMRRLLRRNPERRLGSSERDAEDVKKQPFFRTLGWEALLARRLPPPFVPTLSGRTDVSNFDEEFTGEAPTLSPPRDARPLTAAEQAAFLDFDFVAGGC
Another assay deals with PFTAIRE1 (Homo sapiens, UniProt O94921). The experiment in a line: KiNativ, OCI cells live cell. It counts as cell-based.

Chain of ACK1 (Q07912 whole entry): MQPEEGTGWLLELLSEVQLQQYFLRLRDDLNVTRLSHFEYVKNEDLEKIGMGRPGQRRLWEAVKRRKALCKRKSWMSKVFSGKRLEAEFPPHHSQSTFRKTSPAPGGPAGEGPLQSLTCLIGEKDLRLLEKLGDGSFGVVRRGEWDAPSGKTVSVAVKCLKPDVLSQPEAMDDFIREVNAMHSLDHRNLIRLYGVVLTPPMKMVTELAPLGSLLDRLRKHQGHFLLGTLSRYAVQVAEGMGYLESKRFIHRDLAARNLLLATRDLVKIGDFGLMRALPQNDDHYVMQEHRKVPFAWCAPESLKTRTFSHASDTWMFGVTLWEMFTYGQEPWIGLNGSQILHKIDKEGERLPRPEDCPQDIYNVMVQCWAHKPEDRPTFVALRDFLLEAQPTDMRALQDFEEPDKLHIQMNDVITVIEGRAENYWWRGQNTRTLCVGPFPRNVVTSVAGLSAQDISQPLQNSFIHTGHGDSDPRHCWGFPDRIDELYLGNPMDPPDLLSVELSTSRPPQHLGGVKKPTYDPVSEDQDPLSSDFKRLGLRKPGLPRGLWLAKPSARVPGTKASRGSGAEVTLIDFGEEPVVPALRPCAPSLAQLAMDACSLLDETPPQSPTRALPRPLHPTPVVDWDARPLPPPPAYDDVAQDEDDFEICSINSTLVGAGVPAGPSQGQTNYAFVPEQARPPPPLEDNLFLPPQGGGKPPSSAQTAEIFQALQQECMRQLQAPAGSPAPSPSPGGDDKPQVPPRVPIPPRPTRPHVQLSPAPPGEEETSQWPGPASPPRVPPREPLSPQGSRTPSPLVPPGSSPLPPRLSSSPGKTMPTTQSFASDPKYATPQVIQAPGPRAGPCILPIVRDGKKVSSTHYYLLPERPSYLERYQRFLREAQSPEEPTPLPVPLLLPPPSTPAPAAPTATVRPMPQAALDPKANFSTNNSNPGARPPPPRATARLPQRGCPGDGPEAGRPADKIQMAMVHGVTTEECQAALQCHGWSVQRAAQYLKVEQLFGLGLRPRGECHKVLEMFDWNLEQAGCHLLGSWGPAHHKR
Chain of CaMK1d (Q8IU85 whole entry, the tested form may be a part): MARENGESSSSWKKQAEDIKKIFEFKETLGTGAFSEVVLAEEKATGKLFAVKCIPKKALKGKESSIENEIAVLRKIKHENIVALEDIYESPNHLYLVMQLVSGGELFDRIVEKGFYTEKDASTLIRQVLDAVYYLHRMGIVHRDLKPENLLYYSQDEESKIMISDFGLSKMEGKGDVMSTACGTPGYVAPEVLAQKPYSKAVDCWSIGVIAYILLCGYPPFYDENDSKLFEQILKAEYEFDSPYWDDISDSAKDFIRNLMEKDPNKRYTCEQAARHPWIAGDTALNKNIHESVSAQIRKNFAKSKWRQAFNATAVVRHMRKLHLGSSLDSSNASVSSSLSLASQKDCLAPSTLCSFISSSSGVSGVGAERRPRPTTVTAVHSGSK
Chain of PAK2 (Q13177 whole entry): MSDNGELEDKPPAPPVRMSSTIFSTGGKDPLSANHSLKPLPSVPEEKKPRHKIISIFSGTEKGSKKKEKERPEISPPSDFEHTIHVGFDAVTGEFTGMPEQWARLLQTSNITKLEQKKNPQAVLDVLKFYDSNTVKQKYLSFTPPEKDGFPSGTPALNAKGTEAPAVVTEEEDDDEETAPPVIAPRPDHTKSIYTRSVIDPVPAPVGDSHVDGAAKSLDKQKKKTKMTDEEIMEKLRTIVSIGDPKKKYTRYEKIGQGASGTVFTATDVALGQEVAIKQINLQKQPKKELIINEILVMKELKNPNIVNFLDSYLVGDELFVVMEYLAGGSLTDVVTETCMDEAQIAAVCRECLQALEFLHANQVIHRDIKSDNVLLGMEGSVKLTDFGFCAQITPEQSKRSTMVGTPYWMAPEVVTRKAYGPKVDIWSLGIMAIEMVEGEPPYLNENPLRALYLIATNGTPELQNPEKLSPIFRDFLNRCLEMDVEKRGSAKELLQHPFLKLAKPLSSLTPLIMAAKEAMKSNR

Usually inhibition stands for the drop in the measured response relative to a control, in per cent. A word on the Inhibition: it is the percentage by which the read-out fell short of the control. A low value points to a weak effect. A word on the IC50: it is the concentration that inhibits the measured activity by half. The Kd is the concentration at which binding is half-saturated. As to `CN1CCN(Cc2ccc(Nc3ncc(Cl)c(Nc4ccccc4S(=O)(=O)N(C)C)n3)cc2)CC1` [TP-0903], the inhibition at 0.1 µM on GCK (OCI-AML-3, 2 h, OCI cells, live cell, labeling site Lys1, peptide DTVTSELAAVKIVK, read-out: Inhibition) turned out to be 45.6%; on GCK (OCI-AML-3, 2 h, OCI cells, live cell, labeling site Lys2, peptide DIKGANLLLTLQGDVK, read-out: Inhibition), 42.3%; at GCK (OCI-AML-3, OCI-AML3 cells, 100 nM, read-out: Inhibition of GCK) it was 46%; at ACK1 (OCI-AML-3, 2 h, OCI cells, live cell, labeling site Activation Loop, peptide KVPFAWCAPESLK, read-out: Inhibition), 81.6%; on ACK1 (OCI-AML-3, 2 h, OCI cells, live cell, labeling site Lys1, peptide TVSVAVKCLKPDVLSQPEAMDDFIR, read-out: Inhibition), 86.9%; on ACK1 (OCI-AML-3, OCI-AML3 cells, 100 nM, read-out: Inhibition of ACK1) it was 87%. The inhibition at 0.1 µM is -29.4% on ZAP70 (peptide ISDFGLSKALGADDSYYTAR); -4% on ZAP70 (peptide […], read-out: Inhibition); 13% on CaMK1d (labeling site Lys1, peptide LFAVKCIPK); 8.8% at CaMK1d (labeling site Lys2, peptide DLKPENLLYYSQDEESK); 21.8% against MSK2 domain1 (labeling site Lys1, peptide LYAMKVLR); 12.3% against MSK2 domain1 (labeling site Lys2, peptide DLKLENVLLDSEGHIVLTDFGLSK). The inhibition at 0.1 µM on IKKa was 2.6%; against PYK2 (labeling site Activation Loop, peptide YIEDEDYYKASVTR), 40.6%; at PYK2 (labeling site Lys1, peptide INVAVKTCK), 80%; on PAK2 (labeling site Lys1, peptide IGQGASGTVFTATDVALGQEVAIKQINLQK), -53.1%; against PAK2 (labeling site Other, peptide KNPQAVLDVLKFYDSNTVK), -21.3%; at PKN1 (labeling site Lys1, peptide VLLSEFRPSGELFAIKALK) it was 63.2%. Besides, the inhibition at 0.1 µM on PKN1 (labeling site Lys2, peptide DLKLDNLLLDTEGYVK) worked out at 33.7%. Moreover, the Inhibition in the assay on MST4, YSK1 is 25.0%; at PFTAIRE1 (labeling site Lys1, peptide LVALKVIR), 62.2%; at PFTAIRE1 (labeling site Lys2, peptide DLKPQNLLISDTGELK), 72.4%. For the same compound, the half-maximal inhibitory concentration (IC50) with OCI-AML3 cells amounted to 37 nM. In addition, the Kd at FLT3-ITD and TKD mutants lay within 0.79 to 5.6 nM.
